Experiment [1] concerns the target T1, Voltage-gated N-type calcium channel alpha-1B subunit/Amyloid beta A4 precursor protein-binding family A member 1 (Homo sapiens, UniProt Q00975+Q02410). The class given is protein assay.
Experiment [2] deals with T1, Voltage-gated N-type calcium channel alpha-1B subunit/Amyloid beta A4 precursor protein-binding family A member 1. It counts as protein assay. The source holds these as a separate data set.
Experiment [3] addresses T2, Corticotropin-releasing factor receptor 2/Corticotropin-releasing factor-binding protein (Homo sapiens, UniProt P24387+Q13324).
T2 sequence (Q13324 whole entry): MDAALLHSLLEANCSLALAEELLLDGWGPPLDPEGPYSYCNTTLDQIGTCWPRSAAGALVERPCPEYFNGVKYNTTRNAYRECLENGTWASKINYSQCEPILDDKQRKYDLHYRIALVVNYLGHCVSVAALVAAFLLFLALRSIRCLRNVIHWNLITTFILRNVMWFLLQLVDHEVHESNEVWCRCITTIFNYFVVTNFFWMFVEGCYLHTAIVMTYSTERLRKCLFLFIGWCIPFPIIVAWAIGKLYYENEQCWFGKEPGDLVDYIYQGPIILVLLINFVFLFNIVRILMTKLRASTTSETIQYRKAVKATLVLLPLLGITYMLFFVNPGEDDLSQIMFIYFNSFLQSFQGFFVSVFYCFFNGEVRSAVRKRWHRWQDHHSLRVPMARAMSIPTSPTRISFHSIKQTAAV
T2 sequence (P24387 whole entry): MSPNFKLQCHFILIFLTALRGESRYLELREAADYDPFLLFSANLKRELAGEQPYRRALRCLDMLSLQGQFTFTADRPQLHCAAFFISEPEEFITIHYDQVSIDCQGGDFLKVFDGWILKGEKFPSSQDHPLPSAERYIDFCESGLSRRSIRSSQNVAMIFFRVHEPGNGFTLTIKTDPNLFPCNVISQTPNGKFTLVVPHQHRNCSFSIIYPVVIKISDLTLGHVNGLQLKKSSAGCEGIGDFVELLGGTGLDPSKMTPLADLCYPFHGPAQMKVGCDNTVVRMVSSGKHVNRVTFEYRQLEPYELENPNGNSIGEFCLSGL
In words: Dose Response confirmation of uHTS hits for small molecule antagonists of the CRF-binding protein and CRF-R2 receptor complex. It counts as functional. The note with it: read-out: IC50_Mean.

Experiment [4] can be described thus: cells. It counts as functional, cell-based.
Experiment [5] can be described thus: cells. It counts as functional, cell-based. This is another data set of the same source.
Experiment [6] addresses T2, Corticotropin-releasing factor receptor 2/Corticotropin-releasing factor-binding protein. Put plainly: activators of CRF receptor 2 with binding protein – uHTS hits, confirmation (AID 602473). It counts as functional. The conditions noted are these: read-out: EC50_Mean.
For experiment [7], the target named is T3, Trace amine-associated receptor 1 (Homo sapiens, UniProt Q96RJ0).
T3 sequence (Q96RJ0 whole entry): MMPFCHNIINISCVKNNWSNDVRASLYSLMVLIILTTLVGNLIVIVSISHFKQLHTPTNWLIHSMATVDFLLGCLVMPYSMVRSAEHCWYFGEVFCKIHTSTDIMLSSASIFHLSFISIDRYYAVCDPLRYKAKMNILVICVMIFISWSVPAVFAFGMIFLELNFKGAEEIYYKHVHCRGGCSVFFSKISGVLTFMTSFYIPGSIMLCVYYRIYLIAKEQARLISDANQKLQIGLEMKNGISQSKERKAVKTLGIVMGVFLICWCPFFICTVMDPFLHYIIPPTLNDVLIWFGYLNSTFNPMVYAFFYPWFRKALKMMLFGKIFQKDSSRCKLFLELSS
In words: Fluorescence-based cell-based high throughput dose response assay to identify agonists of the human trace amine associated receptor 1 (TAAR1). The class given is functional.

In experiment [8] the target is T3, Trace amine-associated receptor 1. In words: Counterscreen for agonists of the human trace amine associated receptor 1 (hTAAR1): Fluorescence-based cell-based high throughput dose response assay to identify hTAAR1 agonist that also desensitize TAAR1 receptor response. It counts as functional. (The purpose of a counterscreen is to sort out artefacts and off-target activity.)

The target of another experiment is Kallikrein-7 (Homo sapiens, UniProt P49862). Put plainly: Fluorescence Intensity-based biochemical primary high throughput dose response assay to identify activators of kallikrein-7 (K7) zymogen.
A further experiment deals with Vero. In words: mammalian cell viability reduction – secondary assay, cytotoxicity control for West Nile virus antiviral project, dose response (AID 1650). It counts as functional, Chlorocebus sabaeus. The conditions noted are these: Chlorocebus sabaeus, Vero.
For experiment [9], the target named is T4, Histone-lysine N-methyltransferase NSD2 (Homo sapiens, UniProt O96028).
T4 sequence (O96028 whole entry): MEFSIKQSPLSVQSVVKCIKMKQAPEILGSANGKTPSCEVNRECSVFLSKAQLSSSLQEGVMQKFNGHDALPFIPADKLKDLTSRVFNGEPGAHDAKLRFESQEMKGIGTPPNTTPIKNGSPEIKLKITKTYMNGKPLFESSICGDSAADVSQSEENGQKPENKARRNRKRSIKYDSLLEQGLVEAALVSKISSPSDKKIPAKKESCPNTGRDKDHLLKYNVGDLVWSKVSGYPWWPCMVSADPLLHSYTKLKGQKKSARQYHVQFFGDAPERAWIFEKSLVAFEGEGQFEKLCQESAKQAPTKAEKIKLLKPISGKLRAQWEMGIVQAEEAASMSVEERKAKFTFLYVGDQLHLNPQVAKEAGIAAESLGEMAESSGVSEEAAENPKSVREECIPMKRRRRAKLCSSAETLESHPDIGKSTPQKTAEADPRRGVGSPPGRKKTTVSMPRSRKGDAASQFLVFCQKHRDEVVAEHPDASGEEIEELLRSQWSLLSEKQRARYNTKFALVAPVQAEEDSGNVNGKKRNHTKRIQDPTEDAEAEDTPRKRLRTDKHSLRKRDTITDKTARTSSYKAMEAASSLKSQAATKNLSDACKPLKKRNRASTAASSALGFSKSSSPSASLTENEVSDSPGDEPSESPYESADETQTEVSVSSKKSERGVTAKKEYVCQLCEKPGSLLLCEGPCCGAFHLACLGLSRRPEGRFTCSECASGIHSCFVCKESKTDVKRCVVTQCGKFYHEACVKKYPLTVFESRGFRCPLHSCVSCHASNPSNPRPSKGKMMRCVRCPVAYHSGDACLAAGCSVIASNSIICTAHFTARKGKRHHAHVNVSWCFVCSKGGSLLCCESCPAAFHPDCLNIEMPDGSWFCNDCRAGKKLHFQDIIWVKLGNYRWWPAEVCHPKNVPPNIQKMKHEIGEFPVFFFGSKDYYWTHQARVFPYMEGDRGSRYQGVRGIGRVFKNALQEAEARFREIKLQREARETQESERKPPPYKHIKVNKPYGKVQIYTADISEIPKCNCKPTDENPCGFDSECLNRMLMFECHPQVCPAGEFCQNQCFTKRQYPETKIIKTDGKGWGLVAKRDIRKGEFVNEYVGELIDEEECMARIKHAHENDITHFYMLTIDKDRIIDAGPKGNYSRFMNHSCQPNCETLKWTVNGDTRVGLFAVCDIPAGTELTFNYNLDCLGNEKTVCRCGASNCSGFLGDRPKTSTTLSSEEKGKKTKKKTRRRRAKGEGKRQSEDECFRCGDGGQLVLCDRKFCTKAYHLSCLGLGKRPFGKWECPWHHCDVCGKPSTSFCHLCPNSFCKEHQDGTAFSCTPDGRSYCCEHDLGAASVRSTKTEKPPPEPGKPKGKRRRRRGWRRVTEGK
It counts as biochemical.

The next experiment has as its target Large T antigen (Simian virus 40, UniProt P03070). The class given is functional, Betapolyomavirus macacae.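 Note: Confirmatory-stage PubChem screen for compounds that inhibit SV40 T antigen.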
The target of the next experiment is Nonstructural protein 1 (Influenza A virus, UniProt Q194T2). It counts as functional, Influenza A virus (A/California/07/2009(H1N1)).
Another experiment deals with Paired box protein Pax-8 (Homo sapiens, UniProt Q06710). In words: PAX8 transcriptional activity inhibition in RMG-I – RMG-I cells, luciferase, cherry-pick, dose response (AID 687027).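 Note: luciferase reporter driven by Pax8 target thyroperoxidase promoter measured by SteadyGlo luminescence.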 It counts as functional, cell-based.
The nature of experiment [10]: OVCAR-3 cell viability loss – plate reader, dry powder samples, PAX8 inhibitor project, dose response (AID 743044). It counts as functional, cell-based.
Experiment [11] addresses Heat shock protein HSP 90-alpha (Homo sapiens, UniProt P07900). The class given is functional, organism-based.
Experiment [12] can be described thus: intracellular Trypanosoma cruzi inhibitors in host cells – cell-based, plate reader, cherry-pick samples, set 3, dose response (AID 651818).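 Note: compounds incubated with infected cells for about four days.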 The class given is functional.
A short description of experiment [13]: OVCAR8 cell viability loss – plate reader, dry powder samples, PAX8 project, dose response (AID 743197). It counts as functional, cell-based. The conditions noted are these: OVCAR-8.
Experiment [14] can be described thus: general cell-killing toxicity readout – plate reader, dry powder samples, cytotoxicity control for PAX8 inhibitor project, dose response (AID 743021). It counts as functional, cell-based.
Experiment [15] concerns the target Induced myeloid leukemia cell differentiation protein Mcl-1 (Homo sapiens, UniProt Q07820). It counts as functional.
Experiment [16] is described as follows: viability of PTEN-deleted HCT116 cells – cell-based, HCT116 PTEN knockout, dose response (AID 1047).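 Note: HCT116 colon tumor cells with PTEN knocked out; cells exposed to compound for 60 hours before readout; potency for loss of cell viability measured by luminescence.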 It counts as functional.
The nature of experiment [17]: viability of HCT116 lacking mutant beta-catenin – cell-based, human colon tumor, dose response (AID 1045).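 Note: HCT116 colon tumor cells with beta catenin knocked out; cells exposed to compound for 60 hours.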 It counts as functional.

Calls of active or inactive are those of the source.

Chain of Paired box protein Pax-8 (Q06710 whole entry): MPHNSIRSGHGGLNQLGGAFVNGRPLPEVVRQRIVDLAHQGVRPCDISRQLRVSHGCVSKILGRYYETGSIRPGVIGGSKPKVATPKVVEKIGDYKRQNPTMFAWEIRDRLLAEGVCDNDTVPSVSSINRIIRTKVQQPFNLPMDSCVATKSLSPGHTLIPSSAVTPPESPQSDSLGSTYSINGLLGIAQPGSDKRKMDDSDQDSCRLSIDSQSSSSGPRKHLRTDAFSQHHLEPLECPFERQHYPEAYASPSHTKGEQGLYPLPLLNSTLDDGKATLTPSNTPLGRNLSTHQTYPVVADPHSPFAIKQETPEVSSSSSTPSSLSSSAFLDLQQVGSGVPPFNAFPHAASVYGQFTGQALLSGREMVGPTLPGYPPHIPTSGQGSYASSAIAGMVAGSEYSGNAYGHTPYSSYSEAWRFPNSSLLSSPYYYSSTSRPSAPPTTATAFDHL
T1 sequence (Q00975 whole entry): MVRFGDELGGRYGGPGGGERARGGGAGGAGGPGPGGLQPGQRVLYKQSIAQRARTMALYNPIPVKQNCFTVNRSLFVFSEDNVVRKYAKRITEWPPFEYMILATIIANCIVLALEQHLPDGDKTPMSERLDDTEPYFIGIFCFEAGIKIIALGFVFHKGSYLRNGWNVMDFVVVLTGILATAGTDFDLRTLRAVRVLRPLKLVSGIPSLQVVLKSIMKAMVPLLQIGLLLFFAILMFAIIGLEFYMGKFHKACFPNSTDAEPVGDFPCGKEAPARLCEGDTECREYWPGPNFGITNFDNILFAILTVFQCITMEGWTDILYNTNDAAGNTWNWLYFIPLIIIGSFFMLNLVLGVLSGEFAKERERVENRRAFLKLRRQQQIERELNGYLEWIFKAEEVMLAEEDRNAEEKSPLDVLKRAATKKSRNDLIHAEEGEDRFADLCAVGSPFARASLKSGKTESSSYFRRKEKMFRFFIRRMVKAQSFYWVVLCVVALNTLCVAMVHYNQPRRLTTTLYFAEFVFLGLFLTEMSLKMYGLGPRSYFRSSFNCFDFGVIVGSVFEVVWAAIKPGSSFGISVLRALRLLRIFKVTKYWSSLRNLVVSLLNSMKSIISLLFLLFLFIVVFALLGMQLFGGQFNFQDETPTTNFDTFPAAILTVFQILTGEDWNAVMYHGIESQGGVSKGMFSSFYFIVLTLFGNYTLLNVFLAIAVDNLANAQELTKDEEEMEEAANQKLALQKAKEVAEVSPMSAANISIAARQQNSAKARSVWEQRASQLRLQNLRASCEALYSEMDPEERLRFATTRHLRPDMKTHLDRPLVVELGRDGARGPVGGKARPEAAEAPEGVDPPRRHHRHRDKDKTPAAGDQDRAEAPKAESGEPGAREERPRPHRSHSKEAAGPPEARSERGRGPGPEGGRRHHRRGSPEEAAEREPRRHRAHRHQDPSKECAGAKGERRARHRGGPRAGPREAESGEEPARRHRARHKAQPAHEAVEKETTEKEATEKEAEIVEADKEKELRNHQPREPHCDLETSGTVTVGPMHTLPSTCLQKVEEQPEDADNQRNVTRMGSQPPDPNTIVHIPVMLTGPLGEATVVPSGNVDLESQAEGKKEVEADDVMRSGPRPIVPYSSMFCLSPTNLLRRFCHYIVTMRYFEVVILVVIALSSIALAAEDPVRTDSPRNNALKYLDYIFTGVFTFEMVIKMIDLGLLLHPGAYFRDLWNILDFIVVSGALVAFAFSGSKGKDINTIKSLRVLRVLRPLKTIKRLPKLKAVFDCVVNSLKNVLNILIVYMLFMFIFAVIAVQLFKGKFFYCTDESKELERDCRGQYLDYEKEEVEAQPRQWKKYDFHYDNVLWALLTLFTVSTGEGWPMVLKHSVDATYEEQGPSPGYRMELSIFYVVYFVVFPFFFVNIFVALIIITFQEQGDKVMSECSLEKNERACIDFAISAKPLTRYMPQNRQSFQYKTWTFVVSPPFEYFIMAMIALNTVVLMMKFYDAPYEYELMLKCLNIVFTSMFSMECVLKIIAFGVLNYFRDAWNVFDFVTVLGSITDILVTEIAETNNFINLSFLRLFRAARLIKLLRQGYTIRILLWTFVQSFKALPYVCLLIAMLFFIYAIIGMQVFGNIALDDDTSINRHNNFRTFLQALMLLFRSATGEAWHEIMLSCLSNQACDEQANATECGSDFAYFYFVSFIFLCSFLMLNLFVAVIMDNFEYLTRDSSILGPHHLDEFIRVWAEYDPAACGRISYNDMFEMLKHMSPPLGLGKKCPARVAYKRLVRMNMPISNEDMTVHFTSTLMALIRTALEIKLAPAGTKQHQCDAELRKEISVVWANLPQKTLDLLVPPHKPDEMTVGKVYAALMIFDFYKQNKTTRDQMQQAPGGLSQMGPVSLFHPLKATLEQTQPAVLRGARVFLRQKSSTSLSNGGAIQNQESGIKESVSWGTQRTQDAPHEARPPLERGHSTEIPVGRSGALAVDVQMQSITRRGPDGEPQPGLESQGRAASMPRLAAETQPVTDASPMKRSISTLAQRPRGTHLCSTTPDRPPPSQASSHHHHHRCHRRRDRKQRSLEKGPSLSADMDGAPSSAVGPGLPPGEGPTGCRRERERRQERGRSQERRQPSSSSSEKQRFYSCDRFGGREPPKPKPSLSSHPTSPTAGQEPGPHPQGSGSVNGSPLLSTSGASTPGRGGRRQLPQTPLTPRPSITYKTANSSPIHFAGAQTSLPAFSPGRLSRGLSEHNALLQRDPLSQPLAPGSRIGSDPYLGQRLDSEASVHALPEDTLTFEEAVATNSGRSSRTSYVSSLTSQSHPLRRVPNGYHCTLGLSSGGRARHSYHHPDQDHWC
T1 sequence (Q02410 whole entry): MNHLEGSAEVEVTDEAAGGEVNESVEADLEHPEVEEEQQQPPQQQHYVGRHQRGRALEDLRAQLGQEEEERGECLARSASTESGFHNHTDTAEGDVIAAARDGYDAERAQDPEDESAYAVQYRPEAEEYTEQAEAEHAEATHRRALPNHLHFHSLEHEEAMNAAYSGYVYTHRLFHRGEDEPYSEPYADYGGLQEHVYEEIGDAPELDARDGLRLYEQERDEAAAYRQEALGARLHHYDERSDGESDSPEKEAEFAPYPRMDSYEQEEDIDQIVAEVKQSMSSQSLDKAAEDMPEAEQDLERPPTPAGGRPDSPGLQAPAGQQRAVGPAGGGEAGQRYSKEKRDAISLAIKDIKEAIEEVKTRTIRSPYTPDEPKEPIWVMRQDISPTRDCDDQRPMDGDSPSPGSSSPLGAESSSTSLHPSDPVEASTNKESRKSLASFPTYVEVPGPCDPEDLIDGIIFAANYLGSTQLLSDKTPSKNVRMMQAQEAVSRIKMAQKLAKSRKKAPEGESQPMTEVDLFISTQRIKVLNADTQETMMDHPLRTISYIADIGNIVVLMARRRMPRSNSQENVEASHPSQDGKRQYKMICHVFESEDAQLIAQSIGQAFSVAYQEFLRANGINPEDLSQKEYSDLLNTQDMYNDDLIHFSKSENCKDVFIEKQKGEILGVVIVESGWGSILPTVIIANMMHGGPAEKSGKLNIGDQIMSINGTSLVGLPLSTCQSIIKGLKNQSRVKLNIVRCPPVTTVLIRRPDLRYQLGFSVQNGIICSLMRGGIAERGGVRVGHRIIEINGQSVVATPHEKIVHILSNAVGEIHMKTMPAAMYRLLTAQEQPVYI
Chain of Kallikrein-7 (P49862 whole entry): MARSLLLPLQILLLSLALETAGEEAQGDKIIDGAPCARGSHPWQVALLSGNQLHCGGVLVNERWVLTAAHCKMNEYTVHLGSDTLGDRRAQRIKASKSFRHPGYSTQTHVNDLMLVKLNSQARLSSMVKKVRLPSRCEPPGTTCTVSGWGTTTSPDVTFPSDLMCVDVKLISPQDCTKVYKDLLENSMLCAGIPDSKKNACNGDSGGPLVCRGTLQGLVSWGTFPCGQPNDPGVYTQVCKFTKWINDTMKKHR
Chain of Nonstructural protein 1 (Q194T2 whole entry): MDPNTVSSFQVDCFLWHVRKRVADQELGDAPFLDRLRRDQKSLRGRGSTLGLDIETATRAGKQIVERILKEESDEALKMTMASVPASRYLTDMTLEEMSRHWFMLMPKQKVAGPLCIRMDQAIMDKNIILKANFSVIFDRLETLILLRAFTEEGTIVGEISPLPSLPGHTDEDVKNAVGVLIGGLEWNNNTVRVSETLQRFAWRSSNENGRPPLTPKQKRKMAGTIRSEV
Chain of Large T antigen (P03070 whole entry): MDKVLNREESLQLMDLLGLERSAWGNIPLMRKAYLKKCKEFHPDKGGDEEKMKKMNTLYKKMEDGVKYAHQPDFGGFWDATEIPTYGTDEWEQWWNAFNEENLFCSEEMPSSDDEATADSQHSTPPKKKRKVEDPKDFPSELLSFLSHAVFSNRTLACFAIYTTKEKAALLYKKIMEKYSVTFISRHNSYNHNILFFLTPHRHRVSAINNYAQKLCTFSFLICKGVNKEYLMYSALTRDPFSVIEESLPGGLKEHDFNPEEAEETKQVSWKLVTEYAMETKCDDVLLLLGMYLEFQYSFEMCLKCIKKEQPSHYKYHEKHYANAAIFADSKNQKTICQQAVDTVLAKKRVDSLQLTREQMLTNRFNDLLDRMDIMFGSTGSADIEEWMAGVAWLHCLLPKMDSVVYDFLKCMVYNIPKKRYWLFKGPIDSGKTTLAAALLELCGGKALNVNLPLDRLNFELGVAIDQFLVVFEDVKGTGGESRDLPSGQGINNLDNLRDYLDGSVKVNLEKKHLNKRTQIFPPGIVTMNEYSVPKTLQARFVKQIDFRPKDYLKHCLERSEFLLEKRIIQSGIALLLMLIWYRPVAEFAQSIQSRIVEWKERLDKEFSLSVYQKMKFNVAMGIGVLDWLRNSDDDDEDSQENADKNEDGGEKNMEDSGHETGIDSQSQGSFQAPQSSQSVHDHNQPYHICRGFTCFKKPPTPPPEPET

Turning to `Cc1nc2sc(C(=O)OC(C)C)c(N)c2c(C)c1C`, the IC50 in [1] was > 50 µM (inactive); in [2], 4.25 µM (active).
Regarding `CN1C(=O)NC(c2ccccc2)C2=C1CN(CCc1ccccc1)C2=O` (stereo not given), the IC50 in experiment [3] is > 47.1 µM (inactive); in the experiment “cells [4]”, > 29.9 µM (inactive); in [8], 5.74 µM (active). In addition, the EC50 in the experiment “cells [5]” is > 29.9 µM (inactive); in experiment [6], > 53 µM (inactive); in [7] it was 1.03 µM (active).
For the compound `CN(C)c1cccc2c(S(=O)(=O)NC(=O)[C@H]3O[C@@H](n4cnc5c(N)ncnc54)[C@H](O)[C@@H]3O)cccc12`, the EC50 on Kallikrein-7 was 8.16 µM (active).
As to `Cn1c(=O)[nH]c(=O)c2c1nc(N1CCCCC1)n2CCCSc1nc2ccccc2s1`, in the experiment on Vero, the CC50 is > 100 µM (active).
Consider `CNCCc1ccccn1`, for which the IC50 is > 29.9 µM (inactive) in “cells [4]” and 6.02 µM (active) in experiment [8]. Moreover, the EC50 in “cells [5]” was > 29.9 µM (inactive); in experiment [7], 1.24 µM (active).
As for `Cc1cc(NCCCCO)n2c(nc3ccccc32)c1C#N`, the EC50 at Kallikrein-7 is > 69.5 µM (inactive).
`Cc1cc(C(=O)CN2C(=O)C(=O)N(C3CCCC3)C2=O)c(C)n1CCc1ccccc1`: the IC50 in the experiment “cells [4]” was > 29.9 µM (inactive); in experiment [8], 3.28 µM (active). The EC50 is > 29.9 µM (inactive) in “cells [5]” and 1.89 µM (active) in experiment [7].
For `O=c1c2ccccc2nc(COc2ccccc2)n1/N=C/c1ccc(O)c(O)c1`, the AC50 in experiment [9] was 8.78 µM (active). Further, the IC50 at Large T antigen is 11.7 µM (active).
For `CCn1ccnc1CNCc1cn(-c2cc(C)ccc2C)nc1-c1ccccc1`, the IC50 at Nonstructural protein 1 is 11.8 µM (active).
For `C[C@@H]1CN([C@H](C)CO)S(=O)(=O)c2ccc(C#Cc3ccncc3)cc2O[C@H]1CN(C)C(=O)C1CCCCC1`, the concentration at half-maximal activity (AC50) at Paired box protein Pax-8 was 3.13 µM (active); in [10], 17.1 µM (active).
As for `CCOC(=O)c1ccc(N2C(=O)C=CC2=O)cc1`, the values for the IC50 in experiment [1] and in experiment [2] were 2.46 µM (active) and 6.05 µM (active), respectively. In addition, the AC50 in [11] was 691 nM (active).
As to `COc1ccc(NC(=O)CSc2nn3c(=O)c(C)nnc3s2)cc1`, the IC50 at Nonstructural protein 1 is 8.25 µM (active).
As to `CC(C)Nc1nc(-c2ccccc2CO)c2sccc2n1`, on Kallikrein-7, the EC50 was > 69.6 µM (inactive).
On to `COc1cccc(Nc2nc(C(N)COCc3ccccc3)cs2)n1` (stereo not given), for which the IC50 was 21.9 µM (inactive) in “cells [4]” and 8.79 µM (active) in experiment [8]. In addition, the EC50 is 22.2 µM (inactive) in “cells [5]” and 2.55 µM (active) in experiment [7].
The corresponding values for `c1ccc(CCNc2ncnc3[nH]cnc23)cc1` are > 29.9 µM (inactive), 8.92 µM (active), > 29.9 µM (inactive) and 3.94 µM (active).
For the compound `C[C@@H]1CN([C@@H](C)CO)C(=O)c2cccc(NC(=O)c3ccc(-c4nccs4)cc3)c2O[C@H]1CN(C)CC1CCCCC1`, the AC50 in [12] was 4.06 µM (active).
With `C[C@@H]1CCCCO[C@H](CN(C)Cc2ccccc2)[C@@H](C)CN([C@@H](C)CO)C(=O)c2cc(NC(=O)Nc3ccc(C(F)(F)F)cc3)ccc2O1`, the AC50 on Paired box protein Pax-8 was 19 µM (active); in experiment [10], 44.5 µM (active); in experiment [13], 33.6 µM (active).
For the compound `CC1=C(C(=O)O)N2C(=O)C(NC(=O)c3ccccc3Cl)C2SC1` (stereo not given), the IC50 in experiment [1] was > 50 µM (inactive); in [2], 0.749 µM (active).
Regarding `COc1ccc(CN(C)C[C@@H]2OCCCC[C@H](C)Oc3ccc(NS(=O)(=O)c4ccc(C)cc4)cc3C(=O)N([C@H](C)CO)C[C@H]2C)cc1`, the concentration at half-maximal activity (AC50) is 16.8 µM (active) at Paired box protein Pax-8, 44.6 µM (active) in experiment [13] and 64.6 µM (active) in experiment [14].
Regarding `CCN=c1ccc(Br)cc(C(=O)/C=C/c2c(Cl)cccc2Cl)c1O`, the IC50 in [15] is 2.32 µM (active). Besides, the 50% cytotoxic concentration (CC50) in the experiment with Vero was > 100 µM (active). Moreover, the results for the EC50 in experiment [16] and in experiment [17] were 1.92 µM (active) and 1.67 µM (active), respectively.

Broadly, the CC50 is the concentration at which the toxic effect on the cells reaches its halfway point. The AC50 is the concentration at which the activity in the assay is half-maximal.

The record behind these values is ChEMBL document CHEMBL1201862, “PubChem BioAssay data set” (2004).
